Measured values published in paper PMC9649518, “Knockout of ABC transporters by CRISPR/Cas9 contributes to reliable and accurate transporter substrate identification for drug discovery” (Frontiers in Pharmacology, 2022).

How the values were obtained:
[1] = system: MDCKⅡ-MDR1; set-up: method as in Agarwal et al., 2007; settings: MDCKⅡ-MDR1 treated with P-gp inhibitors; ref Agarwal et al., 2007; cited from earlier work
[2] = system: MRP2; set-up: method as in Bierman et al., 2010; Holmstock et al., 2018; settings: 5 μM and 10 µM; ref Bierman et al., 2010; Holmstock et al., 2018; cited from earlier work
[3] = Bidirectional transport assay across Caco-2 WT monolayers; settings: human, Caco-2, pH 7.4
Experimental: (§1) Then, HBSS was aspirated from both sides.
(§2) For MRP2, the nonfluorescent compound CDCFDA was used as the probe substrate. […] After treatment, samples were transferred to black-walled 96-well assay plates. A standard curve of 2-fold serial dilution from 10 µM CDCF was generated. The CDCF concentration was measured based on the fluorescence in a microplate fluorescence reader (Tecan, Switzerland) set at 485 nm and 530 nm for the excitation and emission wavelengths, respectively.

[4] = Bidirectional transport assay across P-gp KO Caco-2 monolayers; settings: human, pH 7.4
[5] = Bidirectional transport assay across BCRP KO Caco-2 monolayers; settings: human, pH 7.4
Experimental: as §1, §2

[6] = Bidirectional transport assay across MRP2 KO Caco-2 monolayers; settings: human
Experimental: as §1, §2

[7] = Bidirectional transport assay across P-gp/BCRP double KO Caco-2 monolayers; settings: human, pH 7.4
Experimental: (§3) The medium was replaced every second day.
as §1, §2

[8] = Bidirectional transport assay across P-gp/MRP2 double KO Caco-2 monolayers; settings: human, pH 7.4
Experimental: as §3, §1, §2

[9] = Bidirectional transport assay across MRP2/BCRP double KO Caco-2 monolayers; settings: human
Experimental: as §1, §2

[10] = system: MRP2; set-up: method as in Koenig et al., 2010; Swedrowska et al., 2017; settings: 50 µM; Caco-2 cells; ref Koenig et al., 2010; Swedrowska et al., 2017; cited from earlier work

SMILES | Increase of Papp (A-B) [1] | Transport activity of MRP2 [2] | Papp A→B at 1 h, 5 μM [3] | Papp B→A at 1 h, 5 μM [3] | Papp A→B at 1 h, 5 μM [4] | Papp B→A at 1 h, 5 μM [4] | Papp A→B at 1 h, 5 μM [5] | Papp B→A at 1 h, 5 μM [5] | Papp B→A at 1 h, 5 μM ([6]; pH 7.4) | Papp A→B at 1 h, 5 μM ([6]; pH 7.4, Papp A-to-B, Caco^MRP2−/−, 5 μM substrate, 1 h, 37°C, HBSS pH 7.4, n = 3) | Papp A→B at 1 h, 5 μM [7] | Papp B→A at 1 h, 5 μM [7] | Papp A→B at 1 h, 5 μM [8] | Papp B→A at 1 h, 5 μM [8] | Papp B→A at 1 h, 5 μM ([9]; pH 7.4) | Papp A→B at 1 h, 5 μM ([9]; pH 7.4, Papp A-to-B, Caco^MRP2−/−BCRP−/−, 5 μM substrate, 1 h, 37°C, HBSS pH 7.4, n = 3) | Effect on darunavir efflux transport [10]
Cc1cccc(C)c1OCC(=O)N[C@@H](Cc1ccccc1)[C@@H](O)C[C@H](Cc1ccccc1)NC(=O)[C@H](C(C)C)N1CCCNC1=O [Lopinavir, lopinavir] | up to 6 folds | inhibited | 3.25 ± 0.59 ×10⁻⁶ cm/s | 24.5 ± 2.04 ×10⁻⁶ cm/s | 10.2 ± 0.27 ×10⁻⁶ cm/s | 6.59 ± 0.62 ×10⁻⁶ cm/s | 5.79 ± 0.64 ×10⁻⁶ cm/s | 18.4 ± 0.98 ×10⁻⁶ cm/s | 20.1 ± 2.26 ×10⁻⁶ cm/s | ~1 ×10⁻⁶ cm/s | 15.2 ± 1.44 ×10⁻⁶ cm/s | 10.3 ± 0.82 ×10⁻⁶ cm/s | 13.8 ± 1.01 ×10⁻⁶ cm/s | 11.5 ± 0.96 ×10⁻⁶ cm/s | 19 ± 3.05 ×10⁻⁶ cm/s | ~1 ×10⁻⁶ cm/s | –
O=C1OC(c2ccc(O)c(S(=O)(=O)O)c2)(c2ccc(O)c(S(=O)(=O)O)c2)c2c(Br)c(Br)c(Br)c(Br)c21 [bromsulphthalein] | – | – | – | – | – | – | – | – | – | – | – | – | – | – | – | – | significant suppression
